# According to patent publication US12622917B2, “High-activity Wnt pathway inhibitor compound” (ADLAI NORTYE BIOPHARMA CO., LTD., priority 2020, dated 2026):
# Tests used:
# HepG2 = assay: Proliferation inhibition, HepG2 cell line; format: cell-based; conditions: Homo sapiens; HepG2 cells, 96 hours culture, cell viability detection; read-out: Antiproliferative IC50 HepG2
# Text: (§1) The cell lines used in the test are NCI-H929 and HepG2 cell lines whose Wnt pathway is continuously activated and whose proliferation is Wnt pathway-dependent; the inhibitory effect of the compound of the present invention on Wnt-dependent proliferation is judged.
# (§2) Treat the NCI-H929 and HepG2 cell lines cultured in their respective mediums in the logarithmic growth phase, collect the cells and prepare a uniform cell suspension of known concentration, and then add the cell suspension to the 96-well cell culture plate solution so that each well contains 4000 cells. Put it into a […] incubator and incubate at 37° C. for 20-24 h. On the second day, the fully dissolved, 3-fold serially diluted compound was added to each cell culture well, so that the final maximum concentration in the cell culture well was 20 uM, and the culture was continued for 96 hours. In this test, Promega's cell viability detection test is used for detection. The more the cells proliferate, the stronger the final signal intensity will be. The detection instrument is SpectraMax, full wavelength mode. The wells only added with DMSO were used as positive control wells, and the wells that were not inoculated with cells were used as negative control wells. […] The IC50 value of cell proliferation inhibition was used to evaluate the inhibitory effect of the compound on the Wnt pathway and the toxic effect on normal cells (Table 3).
# DU4475 = assay: Proliferation inhibition, Wnt mutant cell line DU4475; format: cell-based; conditions: Homo sapiens, DU-4475; DU4475, Wnt pathway-dependent, 96 hours; read-out: Antiproliferative IC50 DU4475
# Text: (§3) The cell lines used in the experiment are Colo205 and DU4475 cell lines whose Wnt pathway is continuously activated and whose proliferation is Wnt pathway-dependent; while the BELA and RKO cell lines, whose Wnt pathway is not activated under normal circumstances and the proliferation is independent of Wnt pathway, as control cell lines. It is Judged that the inhibitory effect of the compound of the present invention on Wnt-dependent proliferation is not caused by other non-specific toxicity.
# (§4) Treat the Colo205, Du4475, HELA and RKO cell lines cultured in their respective mediums in the logarithmic growth phase, collect the cells and prepare a uniform cell suspension of known concentration, and then add it to the 96-well cell culture plate Cell suspension, so that each well contains 1000 cells. Put it into a 5% CO2 incubator and incubate at 37° C. for 20-24 h. On the second day, the fully dissolved, 3-fold serially diluted compound was added to each cell culture well, so that the final maximum concentration in the cell culture well was 20 uM, and the culture was continued for 96 hours. In this test, Promega's cell viability detection test is used for detection. The more the cells proliferate, the stronger the final signal intensity will be. The detection instrument is SpectraMax, full wavelength mode. The wells only added with DMSO were used as positive control wells, and the wells that were not inoculated with cells were used as negative control wells. […] The IC50 value of cell proliferation inhibition was used to evaluate the inhibitory effect of the compound on the Wnt pathway and the toxic effect on normal cells (Table 2).
# [1] = test system: Colo205-LUC-TCF/LEF M1 reporter cell line (Wnt pathway); assay: Colo205-LUC-TCF/LEF M1 reporter gene (luciferase) inhibition; format: cell-based; conditions: 4 hours incubation, luciferase readout
# Text: Colo205 cell line (Cell Bank of Chinese Academy of Sciences, Cat #TCHu102) was purchased from the Cell Bank of Chinese Academy of Sciences. After expansion and subculture, in the exponential growth phase of the cells, transfection with lipo3000 liposome transfection with TCF/LEF transcription factors Driven luciferase reporter plasmid (Promega). […] The plasmid carries a resistance gene for resistance screening. Transfection was carried out in 10 cm culture dishes using conventional complete medium without resistance. After 2 days, the medium with resistance was replaced, and the culture was continued. After that, the resistant medium was replaced every 2 days, and the suspended cells were discarded. The original medium was centrifuged to remove cells and debris and retained as an adaptive medium. When the cells covered the culture dish, the cells were digested, counted, and passaged in a 96-well plate, so that the average number of cells contained in each well was 1.5/well, and the adaptive medium was used for passage. The rest of the cells were frozen. After subculture, culture for 4 hours to allow the cells to adhere to the wall, and then observe the number of cells in each well under a microscope. Wells with only 1 cell per well were labeled as monoclonal wells. Afterwards, normal culture was performed, and the culture medium was replaced every 2 days, and observed. There are holes where the monoclonal cells continue to grow in the early stage, and they are labeled twice, and can be replaced with normal resistant medium. When a monoclonal well was overgrown with a 96-well plate, it is digested and passaged to a 24-well culture plate. After the 24-well plate is overgrown, it is passaged to a 96-well plate and a 6-well plate. The cells in a 96-well plate are at least 6 wells, of which 3 wells were added with known Wnt inhibitors, and the other 3 wells were not treated. After 24 hours, the cells in the 96-well plate were added with a fluorescence detection reagent to detect the fluorescence intensity. Cell lines with fluorescent expression when not treated and decreased fluorescent light after inhibition were selected and further cultured. The Colo205-LUC-TCF/LEF-M1 cell line is one of the cell lines screened above. Its growth curve, cell shape, and cell growth state are similar to those of the original Colo205 cells, and the ratio of the fluorescent signals of the inhibitor-treated and untreated cells is the largest among all cell lines, and the ratio can reach 4-5 times when inhibited at 4 hours, which was completely suitable for the screening of Wnt inhibitors in the later stage.
# The Colo205-LUC-TCF/LEF M1 cell line is a reporter tool cell stably transfected with the pGL4.49-LUC2-TCF/LEF vector. The β-catenin Wnt pathway is continuously activated. After adding the inhibitor, the Wnt pathway is inhibited. The expression of firefly luciferase regulated by the[…] cis-element decreased, and after adding the detection substrate, the detected light signal decreased accordingly, so as to detect the inhibitory effect of the compound.
# To a 96-well cell culture plate, add 100 uL of the compound with a maximum concentration of 20 uM to each well, and make a 3-fold serial dilution of the compound concentration. Then 10,000 colo205 cells stably transfected with the reporter gene and 100 uL medium were inoculated into each well, and corresponding positive and negative control wells were made at the same time. Put the cells in a 5% CO2 incubator and incubate at 37° C. for 4 hours. After 4 hours, remove the culture medium, add 100 uL of reagent (Promega) containing the corresponding firefly luciferase substrate to each well, and measure the activity of luciferase reporter gene. Luminescence intensity was read with SpectraMax in full wavelength mode. […]
# RKO = assay: Proliferation inhibition, non-Wnt mutant control cell line RKO; format: cell-based; conditions: Homo sapiens, Wnt-independent control cell line, 96 hours, read-out: Antiproliferative IC50 RKO
# Text: as §3, §4
# NCI-H929 = assay: Proliferation inhibition, NCI-H929 cell line; format: cell-based, human; conditions: Homo sapiens; NCI-H929 cells, 96 hours culture, cell viability detection; read-out: Antiproliferative IC50 NCI-H929
# Text: as §1, §2
# Colo205 = assay: Proliferation inhibition, Wnt mutant cell line Colo205; format: cell-based; conditions: Homo sapiens, COLO 205; Colo205, Wnt pathway-dependent, 96 hours; read-out: Antiproliferative IC50 Colo205
# Text: as §3, §4
SMILES,IC50 (HepG2),IC50 (DU4475),IC50 [1],IC50 (RKO),IC50 (NCI-H929),IC50 (Colo205)
CN1c2nc(NCc3ccc(Oc4cnc(C(F)(F)F)nc4)nc3)nc3c2N(CCC3)C(=O)[C@@H]1C1CC1 [167 (W289)],6.8 nM,0.6 nM,12 nM,> 10000 nM,28 nM,6 nM
CCn1nc(C(F)(F)F)cc1Oc1ccc(CNc2nc3c4c(n2)N(C)[C@@](C)(CO)C(=O)N4CCC3)cn1 [204 (W374)],12 nM,–,25 nM,> 10000 nM,60 nM,9.6 nM
[2H]C([2H])([2H])N1c2nc(NCc3ccc(Oc4cnc(C(F)(F)F)nc4)nc3)nc3c2N(CCC3)C(=O)C1CC(F)(F)F (centres unmarked) [192 (W324)],4 nM,–,23 nM,> 10000 nM,12 nM,3.2 nM
CCn1nc(C(F)(F)F)cc1Oc1ccc(CNc2nc3c4c(n2)N(C)[C@@H](COC)C(=O)N4CCC3)cn1 [202 (W361)],10 nM,–,4 nM,> 10000 nM,50 nM,5 nM
C[C@@H](O)[C@H]1C(=O)N2CCCc3nc(NCc4ccc(Oc5cc(C(F)(F)F)nn5C5CC5)nc4)nc(c32)N1C [206 (W388)],49 nM,–,24 nM,> 10000 nM,90 nM,10 nM
CN1c2nc(NCc3ccc(Oc4cnc(C(F)(F)F)nc4)nc3)nc3c2N(CCC3)C(=O)[C@@H]1C(C)(C)C [160 (W362)],3.5 nM,–,3 nM,7150 nM,48 nM,< 0.5 nM
CN1c2nc(NCc3ccc(Oc4cc(C(F)(F)F)nn4C4CC4)nc3)nc3c2N(CCC3)C(=O)[C@@H]1CO [205 (W379)],5.6 nM,–,37 nM,> 10000 nM,67 nM,14.8 nM
Cc1cc(CNc2nc3c4c(n2)N(C)[C@@H](C)C(=O)N4CCC3)cnc1Oc1ccc(C(F)(F)F)nc1 [103 (W195)],68 nM,11 nM,36 nM,> 10000 nM,–,19 nM
[2H]C([2H])([2H])N1c2nc(NCc3ccc(Oc4ccc(C(F)(F)F)nc4)nc3)nc3c2N(CCC3)C(=O)C1CC(F)(F)F (centres unmarked) [195 (W323)],4 nM,–,22 nM,> 10000 nM,19 nM,2.1 nM
CN1c2nc(NCc3ccc(Oc4cc(C(F)(F)F)nn4C4CC4)nc3)nc3c2N(CCC3)C(=O)[C@]1(C)CO [203 (W372)],8.2 nM,–,21 nM,> 10000 nM,95 nM,9.3 nM
COC[C@@]1(C)C(=O)N2CCCc3nc(NCc4ccc(Oc5cnc(C(F)(F)F)nc5)nc4)nc(c32)N1C [180 (W386)],40 nM,–,23 nM,> 10000 nM,82 nM,14.6 nM
COC[C@@]1(C)C(=O)N2CCCc3nc(NCc4ccc(Oc5ccc(C(F)(F)F)nc5)nc4)nc(c32)N1C [179 (W375)],11 nM,–,23 nM,> 10000 nM,45 nM,–
[2H]C([2H])([2H])OC[C@@]1(C)C(=O)N2CCCc3nc(NCc4ccc(Oc5cnc(C(F)(F)F)nc5)nc4)nc(c32)N1C([2H])([2H])[2H] [181 (W396)],81 nM,–,18 nM,> 10000 nM,25 nM,11.9 nM
CCn1nc(C(F)(F)F)cc1Oc1ccc(CNc2nc3c4c(n2)N(C)[C@@H](C)C(=O)N4CCC3)cn1 [152 (W336)],4.4 nM,–,4 nM,> 10000 nM,36 nM,2.7 nM
CC(C)N1c2nc(NCc3ccc(Oc4cnc(C(F)(F)F)nc4)nc3)nc3c2N(CCC3)C(=O)[C@@H]1C [170 (W368)],31 nM,–,17 nM,> 10000 nM,94 nM,7 nM
[2H]C([2H])([2H])OC[C@@]1(C)C(=O)N2CCCc3nc(NCc4ccc(Oc5ccc(C(F)(F)F)nc5)nc4)nc(c32)N1C([2H])([2H])[2H] [182 (W395)],24 nM,–,7 nM,> 10000 nM,–,10.9 nM
COCC[C@H]1C(=O)N2CCCc3nc(NCc4ccc(Oc5ccc(C(F)(F)F)nc5)nc4)nc(c32)N1C [214 (W392)],9.6 nM,–,–,> 10000 nM,82 nM,34 nM
COc1nc(C(F)(F)F)ccc1Oc1ccc(CNc2nc3c4c(n2)N(C)[C@@](C)(CO)C(=O)N4CCC3)cn1 [232 (W418)],< 0.5 nM,–,5.5 nM,> 10000 nM,–,4 nM
[2H]C([2H])([2H])N1c2nc(NCc3ccc(Oc4cc(C(F)(F)F)nn4CC)nc3)nc3c2N(CCC3)C(=O)[C@@H]1COC [201 (W360)],14 nM,–,6 nM,> 10000 nM,51 nM,3.6 nM
CN1c2nc(NCc3ccc(Oc4ccc(C(F)(F)F)nc4)nc3)nc3c2N(CCC3)C(=O)C1CC(F)(F)F (centres unmarked) [189 (W306)],3.5 nM,–,17 nM,> 10000 nM,–,8.5 nM
"C[C@H]1C(=O)N2CCCc3nc(NCc4ccc(Oc5cc(C(F)(F)F)nn5C5CC5)nc4)nc(c32)N1C [130 (W354), (S)-2-(((6-((1-cyclopropyl-3-(trifluoromethyl)-1H-pyrazol-5-yl)oxo)pyridin-3-yl)methyl)amino)-4,5-dimethyl-4,5,9,10-tetrahydro-6H,8H-pyrido[3,2,1-de]pteridin-6-one]",< 0.5 nM,–,< 0.5 nM,> 10000 nM,19 nM,< 0.5 nM
